The record followed here is PMC7061440 (Cell reports, 2019).

Usually pIC50 stands for the IC50 on a negative log10 scale, so that one unit is a factor of ten. A lower pIC50 goes with a high IC50. Broadly, the inhibition is the share of the control response that was lost under treatment.

pIC50: −log10 of the molar value. Several values for one entry are separate records, joined by “and”; a condition that tells them apart may be missing. Identical values can stand only once. Some results are limits rather than exact numbers.

For data set [1], the system named is CD133+ cells (A2780, OVSAHO, OvCAR5). The data set can be described thus: Depletion of CD133+ CSC by FACS 72 h after treatment. The class given is cell-based. On the technique in general: A flow cytometer gives signals particle by particle.
The subject of data set [2] is endometrioid ovarian cancer.
Another data set deals with ALDH1A1 (Homo sapiens, UniProt P00352). Nature of the data set: ALDH enzymatic activity, in vitro inhibition. It is filed as biochemical. The conditions noted are these: IC50 ALDH1A1, in vitro enzymatic assay, propionaldehyde/NAD+.
The test system of a further data set is CaoV3 cells. The data set can be described thus: Minimal residual disease model, CaoV3 subcutaneous. The conditions noted are these: 3 weeks treatment, 6 months follow-up.
The subject of data set [3] is FACS-isolated ALDH+CD133+ A2780 cells. The data set can be described thus: Single-cell microfluidic culture cell death. The class given is cell-based. The conditions noted are these: microfluidic chips, 72 h.
For another data set, the system named is splenocytes. The data set can be described thus: ALDEFLUOR activity in splenocytes of treated animals. The class given is in vivo, mice. Conditions: animals being treated with 673A.
In data set [4] the target is ALDH1A1 Cys303 in SKOv3 tumors (Homo sapiens, UniProt P00352). Nature of the data set: isoTOP-ABPP of ALDH1A in tumors in vivo. More on the design: species or system mice. Conditions: 673A-treated tumors.
The test system of data set [5] is FACS-sorted CD133+ (A2780) cells. The data set can be described thus: Annexin-V/PI FACS analysis of apoptosis. Conditions: 12.5 μM. It is filed as cell-based.
The test system of data set [6] is bulk cells, multiple cell lines. The data set can be described thus: Bulk cell viability in multiple cell lines. It is filed as cell-based.
The next data set has as its target ALDH1A2 (Homo sapiens, UniProt O94788). Nature of the data set: ALDH enzymatic activity, in vitro inhibition. The class given is biochemical. Conditions: IC50 ALDH1A2, in vitro enzymatic assay, propionaldehyde/NAD+.
Data set [7] deals with OVCAR5-ALDH1A3-knockout (KO) cells. The data set can be described thus: 673 dose-response in CRISPR knockout cells. The class given is cell-based.
For another data set, the system named is CD133+ cells. The data set can be described thus: Intracellular calcium level. It is filed as cell-based.
The subject of a further data set is PEO1 cells. The data set can be described thus: ALDEFLUOR assay of ALDH activity in live PEO1 cells. The class given is cell-based.
The test system of data set [8] is chemotherapy-resistant SKOv3 cells. The data set can be described thus: Cellular recovery assay with cisplatin. It is filed as cell-based. The conditions noted are these: for cellular recovery: SKOv3, 9 days after treatment, single agent.
A further data set concerns the target ALDH1A3 (Homo sapiens, UniProt P47895). Nature of the data set: ALDH enzymatic activity, in vitro inhibition. Conditions: IC50 ALDH1A3, in vitro enzymatic assay, propionaldehyde/NAD+. The class given is biochemical.
The test system of a further data set is platinum-resistant PDX. Nature of the data set: Chemotherapy-resistant patient-derived xenograft. It is filed as in vivo, mice. The conditions noted are these: 673A added to carboplatin or cisplatin. Background: In xenograft studies the graft and the host belong to different species.
In data set [9] the test system is non-malignant MCF10A cells. The data set can be described thus: Toxicity to normal cells. It is filed as cell-based.
The next data set concerns SKOv3 cells. The class given is in vivo, mice.
The test system of data set [10] is Ovsaho, HEY-1, and A2780 cell-line xenografts. The data set can be described thus: Cell-line xenografts, single agent.
A further data set deals with ALDH2 (Homo sapiens, UniProt P05091). The data set can be described thus: biochemical.
In data set [11] the test system is primary cells from HGSC patients. Nature of the data set: Seahorse mitochondrial flux analysis. Conditions: 12.5 μM. The class given is cell-based, human.
Data set [12] can be described thus: Hematologic, renal, and liver function tests. It is filed as in vivo. Conditions: liver function tests, 673A added to cisplatin.
The subject of data set [13] is primary patient cells (HGS). The data set can be described thus: Tumor sphere growth assay. It is filed as cell-based, human. The conditions noted are these: single 12.5 μM dose.
The test system of data set [14] is other ALDH family members. Nature of the data set: ALDH enzymatic activity, in vitro inhibition. The class given is biochemical. Conditions: in vitro enzymatic assay.
The subject of data set [15] is human mesenchymal stem cells. Nature of the data set: Toxicity to normal cells. It is filed as cell-based.
The test system of data set [16] is FACS-sorted ALDH+ SKOv3 cells. The data set can be described thus: Intraperitoneal ALDH+ SKOv3 survival study.

Sequence of ALDH1A1 (P00352 whole entry): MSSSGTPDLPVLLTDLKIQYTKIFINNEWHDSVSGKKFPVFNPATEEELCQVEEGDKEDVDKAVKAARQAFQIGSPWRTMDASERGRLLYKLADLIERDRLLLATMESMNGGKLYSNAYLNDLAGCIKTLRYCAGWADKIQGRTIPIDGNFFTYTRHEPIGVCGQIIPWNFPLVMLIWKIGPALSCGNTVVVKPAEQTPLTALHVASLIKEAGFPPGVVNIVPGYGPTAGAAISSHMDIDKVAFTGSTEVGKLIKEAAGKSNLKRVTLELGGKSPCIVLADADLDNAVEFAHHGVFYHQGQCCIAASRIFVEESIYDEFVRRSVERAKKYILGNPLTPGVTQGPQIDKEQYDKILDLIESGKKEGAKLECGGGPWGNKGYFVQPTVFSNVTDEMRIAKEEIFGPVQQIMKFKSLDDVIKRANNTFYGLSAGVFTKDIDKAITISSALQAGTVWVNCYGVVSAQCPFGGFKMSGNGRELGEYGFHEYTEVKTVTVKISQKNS
Sequence of ALDH1A3 (P47895 whole entry): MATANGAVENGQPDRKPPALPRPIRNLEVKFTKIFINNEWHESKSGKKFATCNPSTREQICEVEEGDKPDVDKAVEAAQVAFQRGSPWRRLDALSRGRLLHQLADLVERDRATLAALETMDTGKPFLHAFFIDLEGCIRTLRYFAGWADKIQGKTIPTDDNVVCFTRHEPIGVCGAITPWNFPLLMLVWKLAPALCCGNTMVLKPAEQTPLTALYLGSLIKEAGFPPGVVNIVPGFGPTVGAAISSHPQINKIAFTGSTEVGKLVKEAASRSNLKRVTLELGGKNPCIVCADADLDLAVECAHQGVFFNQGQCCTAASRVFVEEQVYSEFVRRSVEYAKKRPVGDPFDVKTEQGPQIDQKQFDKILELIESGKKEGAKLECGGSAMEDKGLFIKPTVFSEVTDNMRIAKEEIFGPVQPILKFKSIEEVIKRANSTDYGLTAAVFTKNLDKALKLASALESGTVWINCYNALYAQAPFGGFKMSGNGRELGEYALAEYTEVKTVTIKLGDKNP
Sequence of ALDH2 (P05091 18-517): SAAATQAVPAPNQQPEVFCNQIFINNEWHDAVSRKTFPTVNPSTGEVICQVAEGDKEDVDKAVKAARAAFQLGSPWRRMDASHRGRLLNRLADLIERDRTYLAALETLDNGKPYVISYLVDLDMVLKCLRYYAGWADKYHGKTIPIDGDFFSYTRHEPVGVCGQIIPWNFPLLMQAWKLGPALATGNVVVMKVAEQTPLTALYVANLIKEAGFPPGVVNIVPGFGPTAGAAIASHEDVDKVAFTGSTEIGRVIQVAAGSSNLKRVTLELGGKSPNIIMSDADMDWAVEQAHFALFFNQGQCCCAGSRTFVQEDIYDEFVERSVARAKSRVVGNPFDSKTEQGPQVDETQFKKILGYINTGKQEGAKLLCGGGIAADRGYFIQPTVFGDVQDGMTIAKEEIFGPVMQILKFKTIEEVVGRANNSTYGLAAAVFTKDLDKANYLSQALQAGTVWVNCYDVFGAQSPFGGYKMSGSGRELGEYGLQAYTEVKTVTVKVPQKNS
Sequence of ALDH1A2 (O94788 whole entry): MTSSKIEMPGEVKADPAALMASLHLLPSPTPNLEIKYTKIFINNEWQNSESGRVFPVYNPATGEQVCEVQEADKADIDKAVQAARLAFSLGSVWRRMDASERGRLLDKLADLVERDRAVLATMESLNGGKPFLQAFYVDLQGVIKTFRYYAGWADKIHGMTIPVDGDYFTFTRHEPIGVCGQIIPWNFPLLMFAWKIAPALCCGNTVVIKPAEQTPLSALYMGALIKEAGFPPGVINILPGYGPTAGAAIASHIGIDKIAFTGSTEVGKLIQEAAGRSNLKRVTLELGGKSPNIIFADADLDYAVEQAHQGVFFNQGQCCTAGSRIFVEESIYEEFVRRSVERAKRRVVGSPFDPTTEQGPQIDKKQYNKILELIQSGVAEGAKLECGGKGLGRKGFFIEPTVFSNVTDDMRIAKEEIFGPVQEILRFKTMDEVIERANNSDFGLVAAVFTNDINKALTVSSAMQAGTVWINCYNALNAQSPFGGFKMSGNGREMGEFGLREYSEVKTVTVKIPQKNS
Sequence of ALDH1A1 Cys303 in SKOv3 tumors (P00352 whole entry): as the sequence (P00352 whole entry) above

As to `O=Cc1ccc(N2Cc3ccccc3C2)cc1` [673A, 4-(1,3-dihydro-2H-isoindol-2-yl)benzaldehyde], in [1], the “depletion of CD133+ CSCs / toxicity” value is “highly effective at preferentially depleting CD133^+ CSC”. For the same molecule, in data set [2] (carboplatin weekly and 673A 20 mg/kg daily for 7 weeks), the “mice tumor free at conclusion of experiment” value is 27%. For the same molecule, the negative-log IC50 (pIC50) against ALDH1A1 is 6.61 and > 6.46; against ALDH1A2 it was 6.64 and > 6.46; against ALDH1A3 it was 6.46 and > 6.46; at ALDH2, 4.85 and ~4.82. For the same molecule, the “mice that developed tumors” value with CaoV3 cells (cisplatin and 673A) was found to be 40%; in the data set on CaoV3 cells (single agent), 50%. Besides, the “treated cells that died” value in data set [3] is > 90%. Also, the “decrease of ALDEFLUOR activity in splenocytes” value in the data set on splenocytes is 3 fold. Also, the “engagement of ALDH1A1 catalytic residue” value in data set [4] was “clear protection of the catalytic residue Cys303 in ALDH1A1”. The “induction of annexin-V” value in [5] was “no significant early or late induction of annexin-V”. Moreover, the “TD50 bulk cell viability” value in [6] lay within 40 to 80 µM. For the same molecule, the “increase in TD50 versus control cells” value in data set [7] was ~ 10 ×. For the same molecule, the entries for the “increase in intracellular Ca” value with CD133+ cells (16 h after treatment) and in the data set with CD133+ cells (24 h after treatment) were 1.5 fold and 6 fold, respectively. For the same molecule, the inhibition at 25 µM with PEO1 cells (Homo sapiens, PEO1, 6 h, read-out: inhibition of ALDEFLUOR activity) came out at 98%. Further, the “time to inhibition of PEO1 ALDEFLUOR activity” value in the data set with PEO1 cells (PEO1 cells, persisted after 6 h) is on record as ≤ 1 h. Besides, in data set [8] (SKOv3, 9 days after combined treatment of cisplatin and 673A), the “reduction in cell number” value is given as 30 fold. The cellular recovery in data set [8] is 100%. Also, the “reduction of final tumor weight” value with platinum-resistant PDX is on record as “more than 2 fold”. For the same molecule, in data set [9], the “toxicity to non-malignant MCF10A cells” value is recorded as “little or no toxicity”. Further, in the data set on SKOv3 cells (673A combined with cisplatin therapy), the tumor initiation capacity entry is reported as “eliminated tumor initiation capacity”. For the same molecule, the “reduction in tumor growth versus no treatment or cisplatin therapy” value with SKOv3 cells (SKOv3 treated in vitro 12.5 μM, 48 h, 5,000 live cells injected) was 4–5 fold. Further, in the data set with SKOv3 cells (limiting dilution assay, 673A alone), the “reduction of tumor initiation” value is listed as ~ 50%. For the same molecule, in [10] (20 mg/kg daily for 21 days), the “reduction of tumor burden” value is listed as 40%–60%. Besides, in data set [10] (in vivo, single agent), the “reduction of tumor growth as a single agent” value is > 50%. The OXPHOS capacity result in data set [11] is “decreased OXPHOS capacity”. Further, the “toxicity with addition to cisplatin” value in data set [12] is “no additional toxicity”. Moreover, in data set [13], the “average reduction in tumor sphere formation” value was 19 fold. For the same molecule, in [14], the “inhibition of other ALDH family members tested” value is reported as “minimal or no inhibition”. In data set [15], the “toxicity to human mesenchymal stem cells” value is on record as “little or no toxicity”. Besides, the “mice disease free at 6 months” value in data set [16] (cisplatin and 673A) stood at 62%.

As for `CCN(CC)c1ccc(C=O)cc1` [DEAB, N,N-diethylaminobenzaldehyde, reference compound], the “depletion of CD133+ CSCs / toxicity” value in data set [1] is “preferential depletion of CD133^+ cells”. Moreover, in the data set on PEO1 cells (PEO1 cells, 6 h, equimolar doses (25 μM)), the “inhibition of ALDEFLUOR activity” value came to 40%.

Turning to `CCN(CC)C(=S)SSC(=S)N(CC)CC` [DSF, disulfiram, reference compound], in the data set on SKOv3 cells (SKOv3 treated in vitro, 5,000 live cells injected), the “effect on cancer growth” value is recorded as “no effect on cancer growth”.

With `N.N.O=C([O-])C1(C(=O)[O-])CCC1.[Pt+2]` [carboplatin, reference compound], the “mice tumor free after therapy” value in data set [2] (carboplatin alone, 25 mg/kg weekly) worked out at 16%.

Take `N.N.[Cl][Pt][Cl]` [cisplatin, reference compound]: in the data set on CaoV3 cells (single agent), the “mice that developed tumors” value is “Ninety”. Further, the cellular recovery in data set [8] is reported as 100%. The molecule further showed a mice that died in [16] (cisplatin only) of 100%.

For `O=c1c(-c2ccc(O)cc2)coc2cc(O[C@@H]3O[C@H](CO)[C@@H](O)[C@H](O)[C@H]3O)ccc12` [daidzin, reference compound], the “depletion of CD133+ CSCs / toxicity” value in data set [1] was “no significant toxicity”. Besides, the “therapeutic benefit of addition to cisplatin” value in [8] (SKOv3, added to cisplatin) was “No therapeutic benefit”.
